According to US20050214738A1, “Conditional allele system” (priority 2003, published 2005):
Where a SMILES comes first, the peptide text is derived from it. The star is where a group is joined. Cbz = O=C(OCc1ccccc1)*

Columns and labels:
mutant FRBs = test: SeAP transcriptional switch assay, panel of FRB mutants at 2095, 2098, 2101; assay type: cell-based, human
Method: All FRB mutants were prepared by the Quikchange mutagenesis method (Stratagene) using protocols provided by the manufacturer. Briefly, PCR reactions containing the parent plasmid pBJ5-FRB-VP16-HA or pBJ5-FRB*-VP16-HA and overlapping oligonucleotides containing the relevant base changes were performed with Pfu polymerase (Stratagene, San Diego, Calif.). PCR reactions were digested with the methylation sensitive restriction endonuclease Dpn1 to eliminate the parent plasmid and the reaction was transformed in XL10-Gold Ultracompetent E. coli (Stratagene).
Electroporation details are available upon request. Cells were immediately aliquoted to 2 or 3×96 well plates with flat bottoms. […] Data was analysed with Softmax Pro (Molecular Devices), Microsoft Excel and Prism 3 (GraphPad Software).

GSK-3βFRB* = GSK-3βFRB* (UniProt P26883+P42345, K2095P/T2098L/W2101F); test: Inducible stabilization of GSK-3βFRB* in knock-in MEFs (Western blot); assay type: cell-based, mouse; parameters: The minimal FRB domain comprises amino acids 2025-2114 of human mTor; endogenous in cells; host or cells: MEFs from GSK-3β^FRB* knock-in mice (fusion expressed from the targeted endogenous locus); conditions: heterozygous MEFs; for GSK-3βFRB* stability when stabilization is reversed with FK506 in presence of protease inhibitor: inhibitor added 30 minutes before FK506, 9 h
Method: MEFs cell lines were prepared from E14.5-E16.5 embryos of indicated genotypes by eviscerating the embryos in HBSS, treating the remaining tissue with 0.2% collagenase and trypsin, and plating the cells in DMEM containing 10% FCS, antibiotics, and 0.1 mM β-mercaptoethanol. Once established, the MEFs were cultured using standard techniques and treated with various small molecules as indicated.
Western Blot analysis was carried out using cell lysates prepared in RIPA buffer (10 mM Tris pH 7.2, 150 mM NaCl, 0.1% SDS, 1% Triton X-100, 1% deoxycholate, 5 mM EDTA, protease inhibitor cocktail (Invitrogen Life Technologies)) and then separated using standard SDS/PAGE before being transferred to PVDF (Millipore) using standard Western blotting procedures. The anti-GSK-3β antibody, used at 1:2500, the anti-HSP-90 antibody, 1:2500, and the anti-FKBP12 antibody, 1:2500, were purchased from BD Transduction Labs. The anti-β-catenin antibody, 1:2000, and anti-HSP-70 antibody, 1:1000 were purchased from Santa Cruz Biotechnology. […] In all cases, Western blots were incubated overnight with the appropriate primary antibodies in TBST (10 mM Tris 8.0, 150 mM NaCl, 0.1% Tween-20) containing 10% dry milk, and then washed 3 times with TBST. The blots were subsequently incubated for 30 minutes with HRP-conjugated secondary antibodies from Jackson Immunoresearch, washed 3 more times with TBST, and then developed using standard ECL reagents (Amersham Biosciences) and Kodak XAR film.

FRB*Pax6 [1] = biological target: T1, FRB*Pax6 (UniProt P26883+P42345, K2095P/T2098L/W2101F); test: Whole embryo culture, inducible stabilization of FRB*Pax6; parameters: species or system mouse
T1 construct: The minimal FRB domain comprises amino acids 2025-2114 of human mTor; from tissue; host or cells: e13.5 cortical neural cultures (A14) and cultured whole embryos (A15) from Pax6^FRB* knock-in mice; fusion expressed from the targeted endogenous locus
Method: Uterine horns were removed from sacrificed mothers to a petri dish containing Hank's Balanced Salt Solution (HBSS), fat was removed and the uterus cut up to isolate embryos. Individual deciduum were carefully removed from the uterus by carefully pulling apart the muscular layers in a fresh petri dish containing HBSS (sometimes supplemented with 2 mg/mL glucose) under a dissecting microscope. Embryos were removed by cutting along the lateral axis of the deciduum with fine forceps taking care not to puncture the embryonic membranes and teasing off the decidual layers overlying the embryo. Embryos were then separated from the remaining decidua at the ectoplacental cone or primitive placenta (depending on the age of the embryo).
Reichert's membrane was grasped without the underlying visceral yolk sac, carefully torn away from the embryo and trimmed back to the placenta without ripping the yolk sac. […] The bottle rotated slowly in a roller bottle chamber at 37° C. Drugs were added directly to the culture media at the commencement of the culture.
Embryos were fixed overnight in 4% paraformaldehyde/PBS then dehydrated through a staged ethanol series. Endogenous peroxidases were inactivated with 5% H2O2 for 4 hours in ethanol and the embryos were rehydrated. […] Embryos were washed in block 6 hours with 1 hour changes and incubated overnight at 4° C. with […] anti-mouse secondary. Embryos were washed with PBS+0.1% Triton X-100 4 times for 1 hour and developed with the DAB peroxidase kit from Vector laboratories.
Embryos were protected with a staged series to 30% sucrose in PBS after fixation in 4% PFA (60 minutes to overnight at 4° C.). Protected embryos were embedded in OCT (VWR) frozen and sectioned on a Leica cryostat to 10 μm. Thin sections were stained according to standard protocols (obtained upon request). Secondary antibodies were purchased from Molecular Probes (Eugene, Oreg.) and primary antibodies to neurofilament, Lim3, Nkx2.2, Pax6, En1, Isl1 were obtained from Dev. Studies. Additional antibodies were from Covance, Zymed or a generous gift of Tadashi Nomura and Noriko Osumi (Sendai, Japan). Immunofluorescence was visualized by confocal microscopy.

FRB*Pax6 [2] = biological target: T1, FRB*Pax6; test: Stabilization of FRB*Pax6 in cortical neural cultures (Western blot); assay type: cell-based, mouse; conditions: replacement of MaRap after 36 hours; 500 nM after 200 nM MaRap
Description: e13.5 embryos were harvested from a Pax6^FRB*/+ intercross and cortical hemispheres isolated from individuals identified by eye and craniofacial morphology and later confirmed by genotype specific PCR. Pia were removed and neocortex dissected from […] in Hank's balanced salt solution (HBSS). Tissue was minced roughly and placed in centrifuge tubes containing HBSS+20% foetal calf serum. Tissue pieces were allowed to settle and the media was replaced first with HBSS+serum then HBSS alone. The tissue was incubated with 0.1% trypsin+2 mM EDTA 10 minutes at 37° C. then the reaction stopped with HBSS+serum. Cells were triturated to a suspension and plated on 24 well plates coated with matrigel in DMEM (high glucose) supplemented with FCS (5%), N2 (GIBCO) and antibiotics.
Extracts were prepared in RIPA buffer, protein quantified by Bradford Assay (Biorad) and 10 μg of total protein resolved by SDS-PAGE, transferred to PVDF (Millipore) filters and Pax6 or HSP90 identified with specific antibodies (1:1000, Covance and 1:2500 Transduction Laboratories, respectively) incubated 1 hour in TBS+10% nonfat milk. Secondary conjugated to horse radish peroxidase were purchased from Jackson immunochemicals and blots were developed by chemiluminescence (Amersham).

embryos = test: Overt effects on mother and embryos after IP injection of pregnant mice; assay type: in vivo, mouse; conditions: 10 mg/kg/day, similarly injected
Method: GSK-3β^+/FRB* mice were intercrossed and the date of vaginal plug observation was set as E0.5. At E9.5, the stage of embryonic development was confirmed by ultrasonography (Chang, C. P. et al. “Sonographic Staging of the Developmental Status of Mouse Embryos in Utero.” (2003) Published in Genesis 36, 7-11) and mice were weighed. Drug administration commenced at E10.0. […] 100 μL was immediately injected intraperitoneally (IP) to pregnant females with injections repeated twice more at 12 hour intervals to E11.5 when mice were sacrificed, and embryos and organs were dissected and frozen in […]. Tissues anterior to the embryonic forelimbs of individual embryos were used for preparation of protein extracts with the remainder used to determine the concentration of drug and for genotyping.

FRB* = biological target: T2, FRB* (Homo sapiens, UniProt P42345+P62942, K2095P/T2098L/W2101F); test: SeAP reporter assay, dimerization of FRB*-VP16 to FKBP3-GAL4DBD in COS-1 cells; assay type: cell-based; conditions: FRB*(PLF)-VP16; ±95% confidence intervals
T2 construct: The minimal FRB domain comprises amino acids 2025-2114 of human mTor; expressed in transfected cells; host or cells: COS-1 cells
Description: (§1) Transcription activation by recruitment of chimeric transcriptional activation and DNA binding domains is described. COS-1 cells were electroporated with […] each of the following expression plasmids (Ho, S. N., Biggar, S. R., Spencer, D. M., Schreiber, S. L., and Crabtree, G. R. “Dimeric ligands define a role for transcriptional activation domains in reinitiation.” (1996) Nature 382, 822-826): pG5IL2SX (drives transcription of bacterial secreted alkaline phosphatase (SeAP) through GAL4 DNA binding […] elements), pBJ5-GF3E (which expresses the GAL4 DNA binding domain fused to three copies of human FKBP12), and pBJ5-FRBVP. (which expresses a FRB fusion with the Herpes Simplex Virus VP16 Activation domain) A FRB*-VP16 fusion protein which consists of modified FRB protein fused to the VP16 activation domain was also used selectively. Transfected cells were distributed equally to 96 well plates and were incubated at 37° C. for 24 to 36 hours before media was supplemented with drug in a dilution curve in which each point is represented in quadruplicate. Cells were incubated at 37° C. for an additional 24 hours followed by a 2-hour treatment at 65° C. to inactivate endogenous phosphatases. Each well was supplemented with 100μL of 1 mM methylumbelliferylphosphate dissolved in 2 M diethanolamine buffered to pH 10.0 with carbonate and incubated at 37° C. for 16 hours. Fluorescence was measured with a Fluoroscan (ICN) plate reader at 355 nm transmission and 455 nm emission using Deltasoft software.
(§2) Drug efficacy was determined in a three-plasmid transcriptional switch reporter assay. ˜106 COS1 cells were coelectroporated with 2 μg of the DNA binding construct pBJ5-Gal4-FKBP(3), 2 μg pBJ5-VP16 (or the relevant mutant FRB) and 2 μg of the Gal4-SeAP reporter. Electroporation details are available upon request. […] SeAP activity was measured by fluorescence with a Spectamax M2 fluorometer (Molecular Devices, Sunnyvale, Calif.) with transmission set at 355 nm and emmission set at 460 nm. Data was analysed with Softmax Pro (Molecular Devices), Microsoft Excel and Prism 3 (GraphPad Software).

FRB = biological target: T3, FRB (Homo sapiens, UniProt P42345+P62942); test: SeAP reporter assay, dimerization of FRB-VP16 to FKBP3-GAL4DBD in COS-1 cells; assay type: cell-based; conditions: wild-type FRB(KTW)-VP16; ±95% confidence intervals
T3 construct: The minimal FRB domain comprises amino acids 2025-2114 of human mTor; expressed in transfected cells; host or cells: COS-1 cells, electroporated with pBJ5-FRBVP, pBJ5-GF3E and pG5IL2SX
Description: as §1, §2

GSK-3βFRB*, sequence (P42345 2025-2114 K2095P/T2098L/W2101F): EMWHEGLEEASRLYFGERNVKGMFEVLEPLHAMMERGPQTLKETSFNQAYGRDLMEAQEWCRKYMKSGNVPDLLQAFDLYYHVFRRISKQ
GSK-3βFRB*, sequence (P26883 2-108): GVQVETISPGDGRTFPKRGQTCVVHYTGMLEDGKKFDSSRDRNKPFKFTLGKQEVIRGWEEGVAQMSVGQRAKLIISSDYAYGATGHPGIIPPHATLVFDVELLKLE
T1 sequence (P42345 2025-2114 K2095P/T2098L/W2101F): as the sequence (P42345 2025-2114 K2095P/T2098L/W2101F) above
T1 sequence (P26883 2-108): as the sequence (P26883 2-108) above
T3 sequence (P42345 2025-2114): as the sequence (P42345 2025-2114 K2095P/T2098L/W2101F) above, with P71K, L74T, F77W counted along it
T3 sequence (P62942 whole entry, the tested form may be a part): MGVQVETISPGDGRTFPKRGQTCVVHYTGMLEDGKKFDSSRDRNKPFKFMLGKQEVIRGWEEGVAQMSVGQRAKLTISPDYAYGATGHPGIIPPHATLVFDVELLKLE
T2 sequence (P42345 2025-2114 K2095P/T2098L/W2101F): as the sequence (P42345 2025-2114 K2095P/T2098L/W2101F) above
T2 sequence (P62942 whole entry, the tested form may be a part): as the sequence (P62942 whole entry, the tested form may be a part) above

CO[C@H]1[C@@H](O)[C@H](C)C[C@H](C)/C=C/C=C/C=C(\C)[C@@H](c2c[nH]c3c(C)cccc23)C[C@@H]2CC[C@@H](C)[C@@](O)(O2)C(=O)C(=O)N2CCCC[C@H]2C(=O)O[C@H]([C@H](C)C[C@@H]2CC[C@@H](O)[C@H](OC)C2)C[C@H](O)[C@H](C)/C=C(\C)[C@H]1O [C16-(S)iRap, C16-(S)7-methylindolerapamycin, reference compound]
effectiveness against all mutants relative to C16-BSrap (mutant FRBs; all mutants): significantly less effective than C16-BSrap

CCOC(=O)[C@H]1O[C@@H]1C(=O)N[C@@H](CC(C)C)C(=O)NCCC(C)C [E-64D, reference compound]
GSK-3βFRB* stability when stabilization is reversed with FK506 in presence of protease inhibitor (GSK-3βFRB*): did not protect

CO[C@H]1C[C@@H](C)C/C(C)=C/[C@@H](CCOC(=O)NCc2ccccc2)C(=O)C[C@H](O)[C@@H](C)[C@@H](/C(C)=C/[C@@H]2CC[C@@H](O)[C@H](OC)C2)OC(=O)[C@@H]2CCCCN2C(=O)C(=O)[C@]2(O)O[C@H]1[C@@H](OC)C[C@H]2C [FK506M, reference compound]
differentiation of Lim3-positive somatic motor neurons after transient stabilization (FRB*Pax6 [1]; 24 hours MaRap then replacement with FK506M): fail to differentiate
FRB*Pax6 immunoreactivity after transient stabilization (FRB*Pax6 [1]; 24 hours MaRap then replacement with FK506M (5 μM) 24 hours, e9.5 embryos): loss of most of the FRB*Pax6 immunoreactivity
time for stabilized FRB*Pax6 levels to drop to the basal level (FRB*Pax6 [2]): ≤ 6 h
time for GSK-3βFRB* to return to steady state low levels (GSK-3βFRB*; 300 nM after 100 nM C20-MaRap 36 h): less than 9 hours

CC(C)C[C@@H](C=O)NC(=O)[C@H](CC(C)C)NC(=O)[C@H](CC(C)C)NC(=O)OCc1ccccc1 [MG132, reference compound] (Cbz-Leu-Leu-Leu-aldehyde)
GSK-3βFRB* stability when stabilization is reversed with FK506 in presence of protease inhibitor (GSK-3βFRB*): remained stable

CC(=O)N[C@@H](CSC(=O)[C@]1([C@@H](O)C(C)C)NC(=O)[C@H](C)[C@@H]1O)C(=O)O [lactacystin, reference compound]
GSK-3βFRB* stability when stabilization is reversed with FK506 in presence of protease inhibitor (GSK-3βFRB*): remained stable

CO[C@H]1C[C@@H]2CC[C@@H](C)[C@@](O)(O2)C(=O)C(=O)N2CCCC[C@H]2C(=O)O[C@H]([C@H](C)C[C@@H]2CC[C@@H](O)[C@H](OC)C2)CC(=O)[C@H](C)/C=C(\C)[C@@H](O)[C@@H](OC)C(=O)[C@H](C)C[C@H](C)/C=C/C=C/C=C/1C [rapamycin, reference compound]
effect on embryos (embryos): produced “flat-top” embryos

C16-(R)-methallylrapamycin [C16-MaRap]
EC50 (FRB*): 15.9 ± 1.5 nM
EC50 (FRB): 273 ± 13.5 nM

C16-(S)-3-Methylindole rapamycin [C16-iRap]
binding to FRB mutants with Trp 2101 Phe substitution, Leu at 2098 (mutant FRBs; Phe at 2101, Leu at 2098): fully rescues drug binding
binding to FRB mutants with Trp 2101 Phe substitution, Thr at 2098 (mutant FRBs; Phe at 2101, Thr at 2098): does not bind
